Target: Autotaxin (Homo sapiens (Human), UniProt Q13822)
Experiment: Autotaxin LPC Cascade Assay
Type: biochemical
Details: Autotaxin 5 nM, LPC 100 μM, choline oxidase/HRP/Ampliflu Red fluorescence read-out, 2% DMSO, RT; read-out: IC50 ATX Activity
Summary of the method: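 Choline liberated from LPC by autotaxin during 1 h, after a 10-min RT compound preincubation, was converted through choline oxidase/HRP to a fluorescent Ampliflu Red product.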

Row | SMILES | IC50 [nM]
1 | CC(C)[C@@H](NC(=O)c1cc(C(F)(F)F)ccc1F)C(=O)N1CCC2(CC1)C(=O)N(C)C(=O)N2c1ccc2[nH]ncc2c1 [Example 52, (R)—N-(1-(1-(1H-indazol-5-yl)-3-methyl-2,4-dioxo-1,3,8-triazaspiro[4.5]decan-8-yl)-3-methyl-1-oxobutan-2-yl)-2-fluoro-5-(trifluoromethyl)benzamide] | < 500
2 | CC(C)[C@@H](NC(=O)c1cc(C(F)(F)F)ccc1F)C(=O)N1CCC2(CC1)C(=O)N(C)C(=O)N2c1ccc2cn[nH]c2c1 [Example 53, (R)—N-(1-(1-(1H-Indazol-6-yl)-3-methyl-2,4-dioxo-1,3,8-triazaspiro[4.5]decan-8-yl)-3-methyl-1-oxobutan-2-yl)-2-fluoro-5-(trifluoromethyl)benzamide] | ≥ 1000
3 | CC(C)[C@@H](NC(=O)c1cc(C2CC2)ccc1F)C(=O)N1CCC2(CC1)C(=O)N(C)C(=O)N2c1ccc2[nH]ncc2c1 [Example 54, (R)—N-(1-(1-(1H-Indazol-5-yl)-3-methyl-2,4-dioxo-1,3,8-triazaspiro[4.5]decan-8-yl)-3-methyl-1-oxobutan-2-yl)-5-cyclopropyl-2-fluorobenzamide] | < 500
4 | CCc1ccc(F)c(C(=O)N[C@@H](C(=O)N2CCC3(CC2)C(=O)N(C)C(=O)N3c2ccc3[nH]ncc3c2)C(C)C)c1 [Example 55, (R)—N-(1-(1-(1H-Indazol-5-yl)-3-methyl-2,4-dioxo-1,3,8-triazaspiro[4.5]decan-8-yl)-3-methyl-1-oxobutan-2-yl)-5-ethyl-2-fluorobenzamide] | < 500
5 | Cc1ccc(F)c(C(=O)N[C@@H](C(=O)N2CCC3(CC2)C(=O)N(C)C(=O)N3c2ccc3[nH]ncc3c2)C(C)C)c1 [Example 56, (R)—N-(1-(1-(1H-Indazol-5-yl)-3-methyl-2,4-dioxo-1,3,8-triazaspiro[4.5]decan-8-yl)-3-methyl-1-oxobutan-2-yl)-2-fluoro-5-methylbenzamide] | < 500
6 | CN1C(=O)N(c2ccc3[nH]ncc3c2)C2(CCN(C(=O)[C@H](NC(=O)c3cc(C(F)(F)F)ccc3F)C3CCCC3)CC2)C1=O [Example 57, (R)—N-(2-(1-(1H-Indazol-5-yl)-3-methyl-2,4-dioxo-1,3,8-triazaspiro[4.5]decan-8-yl)-1-cyclopentyl-2-oxoethyl)-2-fluoro-5-(trifluoromethyl)benzamide] | < 500
7 | CN1C(=O)N(c2ccc3[nH]ncc3c2)C2(CCN(C(=O)[C@H](NC(=O)c3cc(C(F)(F)F)ccc3F)C3CCC3)CC2)C1=O [Example 58, (R)—N-(2-(1-(1H-Indazol-5-yl)-3-methyl-2,4-dioxo-1,3,8-triazaspiro[4.5]decan-8-yl)-1-cyclobutyl-2-oxoethyl)-2-fluoro-5-(trifluoromethyl)benzamide] | < 500
8 | CC(C)[C@@H](NC(=O)c1cccc(C(F)(F)F)c1)C(=O)N1CCC2(CC1)C(=O)N(C)C(=O)N2c1ccc2[nH]ncc2c1 [Example 59, (R)—N-(1-(1-(1H-Indazol-5-yl)-3-methyl-2,4-dioxo-1,3,8-triazaspiro[4.5]decan-8-yl)-3-methyl-1-oxobutan-2-yl)-3-(trifluoromethyl)benzamide] | < 500
9 | CC(C)[C@@H](NC(=O)c1cc(Cl)cc(C(F)(F)F)c1)C(=O)N1CCC2(CC1)C(=O)N(C)C(=O)N2c1ccc2[nH]ncc2c1 [Example 60, (R)—N-(1-(1-(1H-Indazol-5-yl)-3-methyl-2,4-dioxo-1,3,8-triazaspiro[4.5]decan-8-yl)-3-methyl-1-oxobutan-2-yl)-3-chloro-5-(trifluoromethyl)benzamide] | < 500
10 | Cc1ccc(C(F)(F)F)cc1C(=O)N[C@@H](C(=O)N1CCC2(CC1)C(=O)N(C)C(=O)N2c1ccc2[nH]ncc2c1)C(C)C [Example 61, (R)—N-(1-(1-(1H-Indazol-5-yl)-3-methyl-2,4-dioxo-1,3,8-triazaspiro[4.5]decan-8-yl)-3-methyl-1-oxobutan-2-yl)-2-methyl-5-(trifluoromethyl)benzamide] | ≥ 1000
11 | CC(C)[C@@H](NC(=O)c1cc(OC(F)(F)F)ccc1F)C(=O)N1CCC2(CC1)C(=O)N(C)C(=O)N2c1ccc2[nH]ncc2c1 [Example 62, (R)—N-(1-(1-(1H-Indazol-5-yl)-3-methyl-2,4-dioxo-1,3,8-triazaspiro[4.5]decan-8-yl)-3-methyl-1-oxobutan-2-yl)-2-fluoro-5-(trifluoromethoxy)benzamide] | < 500
12 | COc1ccc(F)c(C(=O)N[C@@H](C(=O)N2CCC3(CC2)C(=O)N(C)C(=O)N3c2ccc3[nH]ncc3c2)C(C)C)c1 [Example 63, (R)—N-(1-(1-(1H-Indazol-5-yl)-3-methyl-2,4-dioxo-1,3,8-triazaspiro[4.5]decan-8-yl)-3-methyl-1-oxobutan-2-yl)-2-fluoro-5-methoxybenzamide] | 500 to 1000
13 | CC(C)[C@@H](NC(=O)c1cc(OC(F)F)ccc1F)C(=O)N1CCC2(CC1)C(=O)N(C)C(=O)N2c1ccc2[nH]ncc2c1 [Example 64, (R)—N-(1-(1-(1H-Indazol-5-yl)-3-methyl-2,4-dioxo-1,3,8-triazaspiro[4.5]decan-8-yl)-3-methyl-1-oxobutan-2-yl)-5-(difluoromethoxy)-2-fluorobenzamide] | < 500
14 | CC(C)[C@@H](NC(=O)c1cc(Cl)ccc1Cl)C(=O)N1CCC2(CC1)C(=O)N(C)C(=O)N2c1ccc2[nH]ncc2c1 [Example 65, (R)—N-(1-(1-(1H-Indazol-5-yl)-3-methyl-2,4-dioxo-1,3,8-triazaspiro[4.5]decan-8-yl)-3-methyl-1-oxobutan-2-yl)-2,5-dichlorobenzamide] | ≥ 1000
15 | CC(C)[C@@H](NC(=O)c1cc(F)ccc1F)C(=O)N1CCC2(CC1)C(=O)N(C)C(=O)N2c1ccc2[nH]ncc2c1 [Example 66, (R)—N-(1-(1-(1H-Indazol-5-yl)-3-methyl-2,4-dioxo-1,3,8-triazaspiro[4.5]decan-8-yl)-3-methyl-1-oxobutan-2-yl)-2,5-difluorobenzamide] | 500 to 1000
16 | CC(C)[C@@H](NC(=O)C12CC3CC(CC(C3)C1)C2)C(=O)N1CCC2(CC1)C(=O)N(C)C(=O)N2c1ccc2[nH]ncc2c1 [Example 67, (R)—N-(1-(1-(1H-Indazol-5-yl)-3-methyl-2,4-dioxo-1,3,8-triazaspiro[4.5]decan-8-yl)-3-methyl-1-oxobutan-2-yl)-1-admantanecarboxly amide] | ≥ 1000
17 | CC(C)[C@@H](NC(=O)c1cc(C(F)(F)F)ccc1Cl)C(=O)N1CCC2(CC1)C(=O)N(C)C(=O)N2c1ccc2[nH]ncc2c1 [Example 68, (R)—N-(1-(1-(1H-Indazol-5-yl)-3-methyl-2,4-dioxo-1,3,8-triazaspiro[4.5]decan-8-yl)-3-methyl-1-oxobutan-2-yl)-2-chloro-5-(trifluoromethyl)benzamide] | ≥ 1000
18 | CC(C)[C@H](NC(=O)c1cc(C(F)(F)F)ccc1F)C(=O)N1CCC2(CC1)C(=O)N(C)C(=O)N2c1ccc2[nH]ncc2c1 [Example 69, (S)—N-(1-(1-(1H-Indazol-5-yl)-3-methyl-2,4-dioxo-1,3,8-triazaspiro[4.5]decan-8-yl)-3-methyl-1-oxobutan-2-yl)-2-fluoro-5-(trifluoromethyl)benzamide] | ≥ 1000
19 | CN1C(=O)N(c2ccc3[nH]ncc3c2)C2(CCN(C(=O)CNC(=O)c3cc(C(F)(F)F)ccc3F)CC2)C1=O [Example 70, N-(2-(1-(1H-Indazol-5-yl)-3-methyl-2,4-dioxo-1,3,8-triazaspiro[4.5]decan-8-yl)-2-oxoethyl)-2-fluoro-5-(trifluoromethyl)benzamide] | ≥ 1000
